In the experiment the test system is Patients with allergic conjunctivitis. Put plainly: Antigen instillation into the eye of patients with allergic conjunctivitis; itchiness of the eye scored in 9 levels, improvement rate versus base line. In kind it is in vivo, human. The settings on record: for improvement (%) of group with pre-administration: once a day for one week, antigen given 16 hr after last instillation; for improvement (%) of group with pre-administration / improvement (%) of group without pre-administration: itchiness 3 min later, proportion of patients with at least 1 point lower itchiness than base line; for improvement (%) of group without pre-administration: single instillation, antigen given 8 hr after instillation. Here is the method: Patients with allergic conjunctivitis (3 groups, 30 patients per group) were instilled with an antigen into the eye. Three minutes later, itchiness of the eye was evaluated in 9 levels (0, 0.5, 1, 1.5, 2, 2.5, 3, 3.5, 4), and the average value (base line group) of itchiness was determined. A specific antigen was determined for each patient. […] At least one week was allowed to lapse from the test of Method 1, and FK506 eye drop (suspension) [0.03%, 0.06% or 0.1%] was instilled into the eye of the patients. At 8 hr after the instillation of the eye drop, the antigen was given. Three minutes later, itchiness of the eye was evaluated in the same manner as in Method 1, and the average value (without pre-administration) of itchiness was determined. […] At least one week was allowed to lapse from the test of Method 2, and FK506 eye drop was instilled into the eye of the patients once a day for one week. At 16 hr after the last instillation of the eye drop, the antigen was given. Three minutes later, itchiness of the eye was evaluated in the same manner as in Method 1, and the average value (with pre-administration) of itchiness was determined.

Structures are written as SMILES.

As for `C=CC[C@@H]1/C=C(\C)C[C@H](C)C[C@H](OC)[C@H]2O[C@@](O)(C(=O)C(=O)N3CCCC[C@H]3C(=O)O[C@H](/C(C)=C/[C@@H]3CC[C@@H](O)[C@H](OC)C3)[C@H](C)[C@@H](O)CC1=O)[C@H](C)C[C@@H]2OC` [FK506, 17-allyl-1,14-dihydroxy-12-[2-(4-hydroxy-3-methoxycyclohexyl)-1-methylvinyl]-23,25-dimethoxy-13,19,21,27-tetramethyl-11,28-dioxa-4-azatricyclo-[22.3.1.0^4,9]octacos-18-ene-2,3,10,16-tetraone], under “0.1% concentration groups”, the “improvement rate of the group with pre-administration after 16 hr compared with the group without pre-administration after 8 hr” value is listed as “markedly higher”. Also, the “improvement (%) of group with pre-administration” value (FK506 eye drop 0.03%) turned out to be 61.54%, the “improvement (%) of group with pre-administration” value (FK506 eye drop 0.06%) was 65.52% and the “improvement (%) of group with pre-administration” value (FK506 eye drop 0.1%) is 72.41%. Besides, the “improvement (%) of group without pre-administration” value (FK506 eye drop (suspension) 0.03%) is 25.93%, the “improvement (%) of group without pre-administration” value (FK506 eye drop (suspension) 0.06%) was 40.00% and the “improvement (%) of group without pre-administration” value (FK506 eye drop (suspension) 0.1%) is 56.67%. Moreover, the “improvement effect on the itchiness by setting a leading period for pre-administration” value (with versus without pre-administration, all concentrations) is “strikingly enhanced”.
